In the supplement of paper PMC10307832:

Assays:
Experiment in all cases: relative viability (nuclei count vs DMSO), 5 days (fraction); higher = more cells survive
[1] = system: 201T
In short: (§1)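 After 5 days of treatment, lung cancer cells in 1536-well plates were fixed and stained in a single step (final 0.05% Triton X-100, 1% formaldehyde, 1 ug/ml Hoechst) and their nuclei counted on 4× images. Treatment had been applied by pin tool the day after seeding as one drug alone or as a fixed anchor-drug dose with five library-drug doses (not always all listed) in √10 steps. Relative viability is the nuclei count of treated wells divided by that of vehicle wells, and values are medians of duplicate plates.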

[2] = system: NCI-H358
In short: as §1

[3] = system: BEN
In short: as §1

[4] = system: NCI-H2087
In short: as §1

[5] = system: NCI-H2126
In short: as §1

[6] = system: EKVX
In short: as §1

[7] = system: NCI-H441
In short: as §1

[8] = system: EMC-BAC-2
In short: as §1

[9] = system: COR-L23
In short: as §1

[10] = system: NCI-H1650
In short: as §1

[11] = system: EPLC-272H
In short: as §1

[12] = system: NCI-H1915
In short: as §1

[13] = system: LCLC-103H
In short: as §1

[14] = system: NCI-H1651
In short: as §1

[15] = system: NCI-H2347
In short: as §1

[16] = system: NCI-H596
In short: as §1

[17] = system: HCC-44
In short: as §1

[18] = system: SW 1573
In short: as §1

[19] = system: LK-2
In short: as §1

[20] = system: NCI-H1793
In short: as §1

[21] = system: HCC-827
In short: as §1

[22] = system: LXF-289
In short: as §1

[23] = system: A-427
In short: as §1

[24] = system: NCI-H460
In short: as §1

[25] = system: SW 900
In short: as §1

CCCCCCCCCCCC1=C(O)C(=O)C=C(O)C1=O [Embelin] + O=C(c1cc(Cc2n[nH]c(=O)c3ccccc23)ccc1F)N1CCN(C(=O)C2CC2)CC1 [Olaparib] (partner 8 µM)
relative viability ([1]; first compound 0.08 µM): 0.826 | relative viability ([1]; first compound 0.8 µM): 0.875 | relative viability ([1]; first compound 2.53 µM): 0.853 | relative viability ([1]; first compound 8 µM): 0.902 | relative viability ([2]; first compound 0.08 µM): 0.554 | relative viability ([2]; first compound 0.8 µM): 0.658 | relative viability ([2]; first compound 2.53 µM): 0.711 | relative viability ([2]; first compound 8 µM): 0.623 | relative viability ([3]; first compound 0.08 µM): 1.15 | relative viability ([3]; first compound 0.8 µM): 1.37 | relative viability ([3]; first compound 2.53 µM): 1.13 | relative viability ([3]; first compound 8 µM): 1.22 | relative viability ([4]; first compound 0.08 µM): 0.649 | relative viability ([4]; first compound 0.8 µM): 0.729 | relative viability ([4]; first compound 2.53 µM): 0.688 | relative viability ([4]; first compound 8 µM): 0.607 | relative viability ([5]; first compound 0.08 µM): 0.901 | relative viability ([5]; first compound 0.8 µM): 0.954 | relative viability ([5]; first compound 2.53 µM): 0.936 | relative viability ([5]; first compound 8 µM): 0.892 | relative viability ([6]; first compound 0.08 µM): 0.816 | relative viability ([6]; first compound 0.8 µM): 0.856 | relative viability ([6]; first compound 2.53 µM): 0.984 | relative viability ([6]; first compound 8 µM): 0.897 | relative viability ([7]; first compound 0.08 µM): 0.624 | relative viability ([7]; first compound 0.8 µM): 0.627 | relative viability ([7]; first compound 2.53 µM): 0.521 | relative viability ([7]; first compound 8 µM): 0.618 | relative viability ([8]; first compound 0.08 µM): 0.48 | relative viability ([8]; first compound 0.8 µM): 0.378 | relative viability ([8]; first compound 2.53 µM): 0.453 | relative viability ([8]; first compound 8 µM): 0.492 | relative viability ([9]; first compound 0.08 µM): 0.373 | relative viability ([9]; first compound 0.8 µM): 0.352 | relative viability ([9]; first compound 2.53 µM): 0.348 | relative viability ([9]; first compound 8 µM): 0.346 | relative viability ([10]; first compound 0.08 µM): 0.775 | relative viability ([10]; first compound 0.8 µM): 0.85 | relative viability ([10]; first compound 2.53 µM): 1.02 | relative viability ([10]; first compound 8 µM): 0.817 | relative viability ([11]; first compound 0.08 µM): 0.845 | relative viability ([11]; first compound 0.8 µM): 0.924 | relative viability ([11]; first compound 2.53 µM): 0.752 | relative viability ([11]; first compound 8 µM): 1.14 | relative viability ([12]; first compound 0.08 µM): 0.274 | relative viability ([12]; first compound 0.8 µM): 0.254 | relative viability ([12]; first compound 2.53 µM): 0.243 | relative viability ([12]; first compound 8 µM): 0.248 | relative viability ([13]; first compound 0.08 µM): 0.762 | relative viability ([13]; first compound 0.8 µM): 0.796 | relative viability ([13]; first compound 2.53 µM): 0.802 | relative viability ([13]; first compound 8 µM): 0.764 | relative viability ([14]; first compound 0.08 µM): 0.201 | relative viability ([14]; first compound 0.8 µM): 0.166 | relative viability ([14]; first compound 2.53 µM): 0.166 | relative viability ([14]; first compound 8 µM): 0.191 | relative viability ([15]; first compound 0.08 µM): 0.596 | relative viability ([15]; first compound 0.8 µM): 0.641 | relative viability ([15]; first compound 2.53 µM): 0.521 | relative viability ([15]; first compound 8 µM): 0.68 | relative viability ([16]; first compound 0.08 µM): 0.698 | relative viability ([16]; first compound 0.8 µM): 0.707 | relative viability ([16]; first compound 2.53 µM): 0.68 | relative viability ([16]; first compound 8 µM): 0.762 | relative viability ([17]; first compound 0.08 µM): 0.989 | relative viability ([17]; first compound 0.8 µM): 0.959 | relative viability ([17]; first compound 2.53 µM): 1.01 | relative viability ([17]; first compound 8 µM): 1 | relative viability ([18]; first compound 0.08 µM): 0.545 | relative viability ([18]; first compound 0.8 µM): 0.561 | relative viability ([18]; first compound 2.53 µM): 0.443 | relative viability ([18]; first compound 8 µM): 0.47 | relative viability ([19]; first compound 0.08 µM): 0.72 | relative viability ([19]; first compound 0.8 µM): 0.515 | relative viability ([19]; first compound 2.53 µM): 0.686 | relative viability ([19]; first compound 8 µM): 0.69 | relative viability ([20]; first compound 0.08 µM): 0.993 | relative viability ([20]; first compound 0.8 µM): 1.03 | relative viability ([20]; first compound 2.53 µM): 1.12 | relative viability ([20]; first compound 8 µM): 1.05 | relative viability ([21]; first compound 0.08 µM): 0.634 | relative viability ([21]; first compound 0.8 µM): 0.648 | relative viability ([21]; first compound 2.53 µM): 0.701 | relative viability ([21]; first compound 8 µM): 0.715 | relative viability ([22]; first compound 0.08 µM): 1.06 | relative viability ([22]; first compound 0.8 µM): 1.17 | relative viability ([22]; first compound 2.53 µM): 1.26 | relative viability ([22]; first compound 8 µM): 1.14 | relative viability ([23]; first compound 0.08 µM): 0.765 | relative viability ([23]; first compound 0.8 µM): 0.872 | relative viability ([23]; first compound 2.53 µM): 0.792 | relative viability ([23]; first compound 8 µM): 0.524 | relative viability ([24]; first compound 0.08 µM): 0.45 | relative viability ([24]; first compound 0.8 µM): 0.431 | relative viability ([24]; first compound 2.53 µM): 0.421 | relative viability ([24]; first compound 8 µM): 0.468 | relative viability ([25]; first compound 0.08 µM): 1 | relative viability ([25]; first compound 0.8 µM): 0.771 | relative viability ([25]; first compound 2.53 µM): 1.15 | relative viability ([25]; first compound 8 µM): 0.918
